Results as given in patent US20130040882A1, “USE OF FIBROBLAST GROWTH FACTOR FRAGMENTS” (NOVARTIS AG, priority 2003, published 2013).
Read-outs that look alike come from different tables or passages of the source.

Tested on: transcript levels in tissues (GH/IGF and glucagon/insulin axes, SSTR signalling)
Type: in vivo, cynomolgus monkeys

cyclo[4-(NH2—C2H4—NH—CO—O)Pro-Phg-DTrp-Lys-Tyr(4-Bzl)-Phe] [SOM230]
Calcium/calmodulin-dependent protein kinase (CaM kinase) II β expression ↑ (fold change) (spleen): II β ↑ x2
Calmodulin 1 (phosphorylase kinase, δ) expression ↑ (fold change) (spleen): kinase, δ) ↑ x2
Calmodulin 2 (phosphorylase kinase, δ) expression ↑ (fold change) (spleen): kinase, δ) ↑ x1.5
Caspase 8, apoptosis-related cysteine protease expression ↑ (fold change) (spleen): ↑ x2.5
Cdk 2 expression ↑ (fold change) (spleen): Cdk 2 ↑ x1.5
Cdk 5, regulatory subunit 1 (p35) expression ↑ (fold change) (spleen): 1 (p35) ↑ x2
Cdk 6 expression ↑ (fold change) (spleen): Cdk 6 ↑ x3
Cyclin D2 expression ↑ (fold change) (spleen): x1.5
Cyclin I expression ↓ (fold change) (spleen): Cyclin I ↓ x1.5
Death-associated protein expression ↑ (fold change) (spleen): protein ↑ x1.5
Dopamine receptor D4 expression ↓ (fold change) (spleen): receptor D4 ↓ x2
EGF (β-urogastrone) expression ↓ (fold change) (spleen): urogastrone) ↓ x2
Follistatin-like 1 expression ↑ (fold change) (spleen): ↑ x1.5
Gastric inhibitory polypeptide receptor expression ↑ (fold change) (spleen): ↑ x2
Gene expression (AvgDiff): IGF-1 (spleen): 85
Gene expression (AvgDiff): IGFBP6 (spleen): 1,043
Gene expression (AvgDiff): SSTR2 (spleen): 93
HGF activator inhibitor precursor expression ↑ (fold change) (spleen): x1.5
IFN regulatory factor 2 expression ↑ (fold change) (spleen): factor 2 ↑ x3.5
IFN-inducible RNA-dependent protein kinase expression ↑ (fold change) (spleen): ↑ x2.5
IFNγ receptor 2 (IFNγ transducer 1) expression ↑ (fold change) (spleen): x1.5
IFNγ responsive transcript expression ↑ (fold change) (spleen): ↑ x2
IGF-1 expression ↑ (fold change) (spleen): IGF-1 ↑ x1.5
IGFBP6 expression ↑ (fold change) (spleen): IGFBP6 ↑ x2.5
IL 1 receptor-like 1 expression ↑ (fold change) (spleen): 1 ↑ x2
IL-8 receptor type B expression ↑ (fold change) (spleen): B ↑ x1.5
IP-4-phosphatase, type 1, isoform b expression ↑ (fold change) (spleen): ↑ x2
K+ large conductance Ca++-activated channel, subfamily M, β member 1 expression ↑ (fold change) (spleen): ↑ x2.5
K+ voltage-gated channel, shaker-related subfamily, member 3 expression ↓ (fold change) (spleen): member 3 ↓ x3
LTb4 (chemokine rceptor-like 1) expression ↑ (fold change) (spleen): rceptor-like 1) ↑ x3
Nuclear factor of activated T-cells, cytoplasmic, calcineurin-dependent 1 expression ↓ (fold change) (spleen): dependent 1 ↓ x5
PDGF, α polypeptide expression ↑ (fold change) (spleen): polypeptide ↑ x2.5
PDGFR, α polypeptide expression ↑ (fold change) (spleen): polypeptide ↑ x1.5
PI-3-kinase, catalytic, α polypeptide expression ↓ (fold change) (spleen): polypeptide ↓ x2.5
PI-3-kinase, class 2, β polypeptide expression ↑ (fold change) (spleen): ↑ x1.5
PI-3-kinase, class 3 expression ↑ (fold change) (spleen): 3 ↑ x2
PKC, α binding protein expression ↑ (fold change) (spleen): protein ↑ x2
PLA2 expression ↑ (fold change) (spleen): PLA2 ↑ x2
PTHR 1 expression ↓ (fold change) (spleen): PTHR 1 ↓ x2.5
Phosphatidyl inositol glycan, class B expression ↑ (fold change) (spleen): B ↑ x1.5
Programmed cell death 10 expression ↑ (fold change) (spleen): death 10 ↑ x1.5
Putative chemokine receptor; GTP-binding protein expression ↑ (fold change) (spleen): ↑ x2.5
Rb binding protein expression ↑ (fold change) (spleen): ↑ x2
Rb-binding protein 8 expression ↑ (fold change) (spleen): 8 ↑ x1.5
S-phase kinase-associated protein 1A (p19A) expression ↑ (fold change) (spleen): 1A (p19A) ↑ x2
SSTR2 expression ↑ (fold change) (spleen): SSTR2 ↑ x2
Solute carrier family 9 (Na+/H+ exchanger) isoform 3 regulatory factor 1 expression ↑ (fold change) (spleen): ↑ x10.5
TGF induced protein expression ↑ (fold change) (spleen): protein ↑ x1.5
TGFβ receptor III (betaglycan, 300 kD) expression ↓ (fold change) (spleen): ↓ x1.5
TNF (cachectin) expression ↑ (fold change) (spleen): ↑ x2
TNF (ligand) superfamily, member 13 expression ↑ (fold change) (spleen): member 13 ↑ x2.5
TNFR superfamily, member 12 expression ↑ (fold change) (spleen): member 12 ↑ x1.5
Tumour protein p53-binding protein expression ↑ (fold change) (spleen): ↑ x1.5
VEGF expression ↑ (fold change) (spleen): VEGF ↑ x1.5
Vasodilatator-stimulated phosphoprotein expression ↑ (fold change) (spleen): phosphoprotein ↑ x2
β adrenergic receptor kinase 1 expression ↑ (fold change) (spleen): kinase 1 ↑ x3
S-phase kinase-associated protein 1A expression ↑ (fold change) (spleen, second entry, without (p19A)): 1A ↑ x2
ATPase, Ca++ transporting, cardiac muscle, fast twitch 1 expression ↓ (fold change) (thyroid): ↓ x4.5
Adenylate cyclase activating polypeptide precursor expression ↓ (fold change) (thyroid): x1.5
Adrenergic, α-2C-, receptor expression ↓ (fold change) (thyroid): ↓ x2.5
Bcl-2 binding component 3 expression ↓ (fold change) (thyroid): ↓ x2
Brain cannabinoid receptor 1 expression ↓ (fold change) (thyroid): ↓ x2
CD2 antigen (cytoplasmic tail)-binding protein 2 expression ↑ (fold change) (thyroid): ↑ x3.5
CD2 antigen (p50), sheep red blood cell receptor expression ↓ (fold change) (thyroid): ↓ x7.5
COL1A1 and PDGFB fusion transcript expression ↓ (fold change) (thyroid): transcript ↓ x6
Cadherin 13, H-cadherin (heart) expression ↑ (fold change) (thyroid): ↑ x2
Calcium/calmodulin dependent protein kinase 1 expression ↓ (fold change) (thyroid): ↓ x2
Calcium/calmodulin-dependent PK IV expression ↓ (fold change) (thyroid): IV ↓ x7.5
Calmodulin-dependent PK IV (CaM-kinase IV) expression ↓ (fold change) (thyroid): IV) ↓ x7.5
Cannabinoid receptor 2 (macrophage) expression ↑ (fold change) (thyroid): ↑ x3
Cdc-like 5 (cholinesterase-related cell division controller) expression ↓ (fold change) (thyroid): x2
Cdk 5, regulatory subunit 1 (p35) expression ↓ (fold change) (thyroid): subunit 1 (p35) ↓ x5
Cdk (CDC2-like) expression ↓ (fold change) (thyroid): Cdk (CDC2-like) ↓ x9
Chemokine (C-X-C motif), receptor 4 (fusin) expression ↓ (fold change) (thyroid): ↓ x3
Chole-cystokinin B receptor expression ↓ (fold change) (thyroid): receptor ↓ x3
Cyclin B2 expression ↓ (fold change) (thyroid): Cyclin B2 ↓ x2.5
DAG 1 kinase, α (80 kD) expression ↓ (fold change) (thyroid): (80 kD) ↓ x4
Egf-like module containing, mucin-like, hormone receptor-like sequence 1 expression ↓ (fold change) (thyroid): sequence 1 ↓ x5
FKBP-associated protein expression ↓ (fold change) (thyroid): protein ↓ x2.5
Flt3 ligand expression ↓ (fold change) (thyroid): Flt3 ligand ↓ x4.5
Fms-related tyrosine kinase 1(VEGF/vascular permeability factor receptor) expression ↓ (fold change) (thyroid): ↓ x2
GABA (A) receptor, γ2 precursor expression ↓ (fold change) (thyroid): ↓ x1.5
GABA (B) receptor 1, isoform a precursor expression ↑ (fold change) (thyroid): ↑ x2.5
Gastric inhibitory polypeptide 1 receptor expression ↓ (fold change) (thyroid): receptor ↓ x2
Gene expression (AvgDiff): IGF-1 (thyroid): 58
Glutamate receptor, metabotropic 2 precursor expression ↓ (fold change) (thyroid): precursor ↓ 3.5
Growth arrest-specific 1 expression ↓ (fold change) (thyroid): 1 ↓ x2.5
IFNα-inducible protein 27 expression ↑ (fold change) (thyroid): 27 ↑ x3
IFNγ responsive transcript expression ↓ (fold change) (thyroid): ↓ x1.5
IFNγ-inducible protein 30 expression ↑ (fold change) (thyroid): protein 30 ↑ x3.5
IGF-1 expression ↓ (fold change) (thyroid): IGF-1 ↓ x1.5
IL2-inducible T-cell kinase expression ↓ (fold change) (thyroid): ↓ x12
IL9 receptor expression ↓ (fold change) (thyroid): IL9 receptor ↓ x2
IP3 receptor type 3 expression ↓ (fold change) (thyroid): type 3 ↓ x1.5
K+ voltage-gated channel, shaker-related subfamily, member 3 expression ↓ (fold change) (thyroid): ↓ x4.5
LTB4 receptor (chemokine receptor-like 1) expression ↓ (fold change) (thyroid): ↓ x1.5
Lymphocyte specific protein tyrosine kinase expression ↓ (fold change) (thyroid): ↓ x4
P56lck expression ↓ (fold change) (thyroid): P56lck ↓ x18
PDGF-associated Protein expression ↑ (fold change) (thyroid): Protein ↑ x2
PDGFR α expression ↓ (fold change) (thyroid): ↓ x3
PDGFR β expression ↑ (fold change) (thyroid): ↑ x2
PIP 5-phosphatase type IV expression ↓ (fold change) (thyroid): type IV ↓ x3
PLC, γ1 (formerly subtype 148) expression ↓ (fold change) (thyroid): ↓ x2
Phosphatidyl ethanolamine N-methyltransferase expression ↑ (fold change) (thyroid): ↑ x2
Pro-platelet basic protein (includes platelet basic protein, β-thromboglobulin, connective tissue-activating peptide III, neu) 2 expression ↑ (fold change) (thyroid): 2 ↑ x3.5
RAG1 expression ↓ (fold change) (thyroid): RAG1 ↓ x18
RAG2 expression ↓ (fold change) (thyroid): RAG2 ↓ x5
RANTES expression ↑ (fold change) (thyroid): RANTES ↑ x10.5
SH2 domain protein 1A, Duncan's disease (lymphoproliferative syndrome) expression ↓ (fold change) (thyroid): ↓ x7.5
Signalling lymphocytic activation molecule expression ↓ (fold change) (thyroid): ↓ x4.5
Solute carrier family 21 (PG transporter), member 2 expression ↑ (fold change) (thyroid): member 2 ↑ x2
TCR ζ chain precursor expression ↓ (fold change) (thyroid): ↓ x5.5
TNF (ligand) superfamily, member 10 expression ↑ (fold change) (thyroid): ↑ x2
TSHR expression ↓ (fold change) (thyroid): TSHR ↓ x2
Thrombospondin 2 expression ↑ (fold change) (thyroid): 2 ↑ x2
Transcription factor 7 (T-cell specific, HMG-box) expression ↓ (fold change) (thyroid): box) ↓ x16.5
VWF precursor expression ↑ (fold change) (thyroid): precursor ↑ x2
c-AMP responsive element binding protein 1 expression ↓ (fold change) (thyroid): protein 1 ↓ x2
Endothelial differentiation-related factor 1 expression, direction of change (thyroid, arrow only, factor not given): related factor 1 ↑
